Test results published in patent US20160376659A1, “Breast Cancer Biomarker” (The University of Manchester, priority 2015, published 2016).

Columns and labels:
ALDH1A1 = settings: short-term administration to patients; analysis of published microarray data; cited from earlier work
[1] = system: CBF1-Notch transcriptional activity; assay: Notch transcriptional assay (10×CBF1-luciferase reporter); assay type: cell-based, human; settings: TAMR and FULVR cell lines; 72 h
Protocol: MCF7 resistant cell lines were authenticated by comparative karyotyping to ATCC-derived MCF7. To measure the activation of Notch dependent transcription, cells were transfected with CBF1 firefly luciferase reporter (containing 10 copies of a CBF1 consensus sequence) and CMV-Renilla luciferase reporter. Plasmids were incubated with […] (Roche, 06366244001) in a ratio of 3:1 (μl of […] of DNA) in OptiMEM (Life Technologies, 11058-021) for 15 minutes, before addition to the culture media. After 48 hours cells were lysed with 1× Passive lysis buffer (5×, Promega, E 1941), put on the rocker for 15 minutes and luminescence was assayed with the Dual-Glo Luciferase assay system (Promega, E2920) following manufacturer's instructions. Luciferase activity was measured using a luminometer (Promega, Glomax Multi+ Detection System with Instinct Software). Luminescence of the firefly luciferase was normalised to that of the renilla luciferase.

[2] = system: NOTCH4 intracellular domain; assay: NOTCH4 intracellular domain Western Blot in MCF-7 endocrine-resistant cells; assay type: cell-based, human; settings: endocrine-resistant models; 72 h
Protocol: MCF7, T47D and ZR-75-1 cell lines were purchased from American Tissue Culture Collection (ATCC) and cultured in DMEM/F-12, GlutaMAX (Gibco) with 10% FBS (Gibco). […] MCF7 resistant cell lines were authenticated by comparative karyotyping to ATCC-derived MCF7. Proteins were extracted with Protein Lysis Buffer (25 mM HEPES, 50 mM NaCl, 30 mM NaPP, 50 mM NaF, 1% Triton-X-100, 10% Glycerol, 5 mM EDTA, Protease Inhibitor cocktail, 1 μM PMSF). Lysates were placed on a rotator for 1 hour at 4° C., then were centrifuged at 10000 g at 4° C. for 10 min, and supernatants were collected. Protein concentrations were assessed using the BCA Protein Assay Kit (Thermo Scientific, 23225). Proteins were separated on a 10% gel (Biorad, 456-1033) by SDS-PAGE at 200V for 1 hour, and then were transferred on polyvinylidene difluoride (PVDF) membranes (BioRad, 170-4157) at 25 V/1,300 mA for 15 min using a Trans Blot Turbo (BioRad, 170-4155). Membranes were blocked in a solution of PBS containing 0.05% Tween-20 and 5% skimmed milk (Marvel) for 1 h at room temperature and primary antibodies were incubated overnight at 4° C. […]

[3] = system: Notch target genes HEY1 and HES1; assay: HEY1 and HES1 expression in TAMR, FULVR and parental MCF-7 cells; assay type: cell-based, human; settings: TAMR and FULVR cell lines; 72 h
Protocol: MCF7, T47D and ZR-75-1 cell lines were purchased from American Tissue Culture Collection (ATCC) and cultured in DMEM/F-12, GlutaMAX (Gibco) with 10% FBS (Gibco). […] MCF7 resistant cell lines were authenticated by comparative karyotyping to ATCC-derived MCF7. Total RNA was extracted using the RNeasy Plus Mini Kit (QIAGEN, 74104) and the concentration and purity determined using an ND-1000 spectrophotometer (NanoDrop Technologies). Reverse transcription of 1 μg of RNA was performed with Oligo(dT) using the TaqMan Reverse Transcription Reagents from Applied Biosystems (N8080234). Samples were incubated on a thermal cycler (MJ Research) for 10 minutes at 25° C., 30 minutes at 48° C. and 5 minutes at 95° C. Quantitative real-time PCR reactions were set up in triplicate in 384-well plates and performed on the 7900 PCR machine (Applied Biosystems) using TaqMan® Universal PCR Master Mix (Applied Biosystems) and probes from Universal Probe Library (Roche). Conditions used for amplification of cDNA fragments were as follows: 95° C. for 5 min, 40 cycles of amplification-95 C for 15 sec, 60 C for 1 min. The expression levels were calculated using the ΔΔCt method and normalised to the housekeeping genes 36B4 and GAPDH. The sequences of the primers and probes used can be found in the table below.

[4] = system: HBC×22 and HBC×34 tamoxifen-resistant PDXs; assay: BCSC activity (MFE, ALDH-positive cells) in tamoxifen-resistant PDXs treated in vivo; set-up: species or system mice; settings: RO4929097 10 mg/kg/day oral gavage, 14 days
Protocol: Fulvestrant (kindly provided by Astrazeneca, 200 mg/kg/week) was administered by subcutaneous injection (0.1 ml/dose) on a weekly basis for fourteen days. […] Xenografts were collected in ice cold DMEM media for live cell assays, histological analysis and RNA and protein extraction. Patient-derived xenograft single cell suspension was obtained using a collagenase-hyaluronidase mixture for digestion (Stem Cell Technologies). […] Primary mammospheres were dissociated and replated in secondary mammosphere suspension culture for a further 7-9 days to measure self-renewal. Patient-derived xenograft cells were cultured for 7-10 days. For cell lines, cells were pre-treated in adherence and then cultured for 5 days in mammosphere culture. Mammosphere formation efficiency (MFE) was calculated by dividing the number of mammospheres formed (≧50 μm) by the original number of single cells seeded (500 cells/cm^2 for primary cells and 200 cells/cm^2 for cell lines) and is expressed as fold change normalised to control or as the mean percentage of MFE (Shaw et al., 2012). Dissociated single cells were suspended in Aldefluor assay buffer containing an ALDH substrate, bodipyaminoacetaldehyde (BAAA) at […], and incubated for 45 min at 37° C. […] Data were acquired on a LSR II (BD) flow cytometer and analysed using the BD FACSDiva™ software.

ER+ BC = assay: Tamoxifen trial study (SBII:2a), survival stratified by ALDH1; assay type: in vivo, human; settings: 322 pre-menopausal ER+ BC patients; 2 years adjuvant tamoxifen vs no systemic treatment; ALDH1 dichotomised at median
[5] = system: patient-derived ER+ tumour cells; assay: Mammosphere self-renewal of patient-derived ER+ tumour cells; assay type: cell-based, human; settings: 10^−6 M 4-hydroxy-tamoxifen vs ethanol control; secondary mammospheres 7-9 days

In the case of `C[C@]12CC[C@@H]3c4ccc(O)cc4C[C@@H](CCCCCCCCC[S+]([O-])CCCC(F)(F)C(F)(F)F)[C@H]3[C@@H]1CC[C@@H]2O` (stereo partly shown) [fulvestrant], the “expression of the ALDH1A1 gene in breast tumors” value (ALDH1A1) is given as “significantly increased”.

In the case of `CC(C)(C(=O)NCC(F)(F)C(F)(F)F)C(=O)N[C@@H]1C(=O)Nc2ccccc2-c2ccccc21` [RO4929097], the CBF1-Notch transcriptional activity [1] is reported as “inhibited”, the “levels of the active NOTCH4 intracellular domain” value [2] is reported as “effective in reducing” and the “HEY1 and HES1 expression” value [3] is reported as “inhibited”. For the same compound, the “enrichment of BCSCs” value [4] was “significantly reduced”.

With `CC/C(=C(\c1ccccc1)c1ccc(OCCN(C)C)cc1)c1ccccc1` [tamoxifen, (Z)-2-[4-(1,2-diphenylbut-1-enyl)phenoxy]-N,N-dimethylethanamine] the “survival benefit from tamoxifen by epithelial ALDH1 expression” value (ER+ BC) was “improvement in survival (ie. a response to treatment) was only seen in women with low epithelial ALDH1 expression” and the mammosphere self-renewal [5] was “about two-fold”.
